Experimental data published in ChEMBL document CHEMBL3585261, “Isolation and Pharmacological Evaluation of Minor Cannabinoids from High-Potency Cannabis sativa” (J Nat Prod, 2015).
pKi: −log10 of the molar value.

Legend:
Mus musculus [1] = assay: Neurobehavioral effect on Swiss Webster mouse assessed as locomotor activity measured as total number of interruptions at 5 mg/kg, ip monitored for 30 mins (reference value: 2091 +/- 209.3) by mouse tetrad assay; type: functional
Mus musculus [2] = assay: Neurobehavioral effect on Swiss Webster mouse assessed as locomotor activity measured as total number of interruptions at 20 mg/kg, ip monitored for 30 mins (reference value: 2091 +/- 209.3) by mouse tetrad assay; type: functional
Mus musculus [3] = assay: Neurobehavioral effect on Swiss Webster mouse assessed as catalepsy latency time at 5 mg/kg, ip (reference value: 2.1 +/- 0.60 secs) by mouse tetrad assay; type: functional
Mus musculus [4] = assay: Neurobehavioral effect on Swiss Webster mouse assessed as catalepsy latency time at 20 mg/kg, ip (reference value: 2.1 +/- 0.60 secs) by mouse tetrad assay; type: functional
Mus musculus [5] = assay: Neurobehavioral effect on Swiss Webster mouse assessed as tail-flick latency time at 5 mg/kg, ip (reference value: 0.84 +/- 3.58 %) by mouse tetrad assay; type: functional
Mus musculus [6] = assay: Neurobehavioral effect on Swiss Webster mouse assessed as tail-flick latency time at 20 mg/kg, ip (reference value: 0.84 +/- 3.58 %) by mouse tetrad assay; type: functional
Mus musculus [7] = assay: Neurobehavioral effect on Swiss Webster mouse assessed as hot plate latency time at 5 mg/kg, ip (reference value: 8.32 +/- 2.20 %) by mouse tetrad assay; type: functional
Mus musculus [8] = assay: Neurobehavioral effect on Swiss Webster mouse assessed as hot plate latency time at 20 mg/kg, ip (reference value: 8.32 +/- 2.20 %) by mouse tetrad assay; type: functional
Mus musculus [9] = assay: Neurobehavioral effect on Swiss Webster mouse assessed as decrease in rectal temperature at 5 mg/kg, ip (reference value: 0.58 +/- 0.26 degC) by mouse tetrad assay; type: functional
Mus musculus [10] = assay: Neurobehavioral effect on Swiss Webster mouse assessed as decrease in rectal temperature at 20 mg/kg, ip (reference value: 0.58 +/- 0.26 degC) by mouse tetrad assay; type: functional
Cannabinoid receptor 1 = Cannabinoid receptor 1 (Homo sapiens, UniProt P21554); assay: Displacement of [3H]CP55940 from full length human recombinant CB1 receptor expressed in HEK293 cells after 90 mins by scintillation counting analysis; type: cell-based
Cannabinoid receptor 2 = Cannabinoid receptor 2 (Homo sapiens, UniProt P34972); assay: Displacement of [3H]CP55940 from full length human recombinant CB2 receptor expressed in HEK293 cells after 90 mins by scintillation counting analysis; type: cell-based
Mus musculus [11] = assay: Neurobehavioral effect on Swiss Webster mouse assessed as locomotor activity measured as total number of interruptions at 10 mg/kg, ip monitored for 30 mins (reference value: 2091 +/- 209.3) by mouse tetrad assay; type: functional
Mus musculus [12] = assay: Neurobehavioral effect on Swiss Webster mouse assessed as catalepsy latency time at 10 mg/kg, ip (reference value: 2.1 +/- 0.60 secs) by mouse tetrad assay; type: functional
Mus musculus [13] = assay: Neurobehavioral effect on Swiss Webster mouse assessed as tail-flick latency time at 10 mg/kg, ip (reference value: 0.84 +/- 3.58 %) by mouse tetrad assay; type: functional
Mus musculus [14] = assay: Neurobehavioral effect on Swiss Webster mouse assessed as hot plate latency time at 10 mg/kg, ip (reference value: 8.32 +/- 2.20 %) by mouse tetrad assay; type: functional
Mus musculus [15] = assay: Neurobehavioral effect on Swiss Webster mouse assessed as decrease in rectal temperature at 10 mg/kg, ip (reference value: 0.58 +/- 0.26 degC) by mouse tetrad assay; type: functional
Mus musculus [16] = assay: Neurobehavioral effect on Swiss Webster mouse assessed as locomotor activity measured as total number of interruptions at 40 mg/kg, ip monitored for 30 mins (reference value: 2091 +/- 209.3) by mouse tetrad assay; type: functional
Mus musculus [17] = assay: Neurobehavioral effect on Swiss Webster mouse assessed as catalepsy latency time at 40 mg/kg, ip (reference value: 2.1 +/- 0.60 secs) by mouse tetrad assay; type: functional
Mus musculus [18] = assay: Neurobehavioral effect on Swiss Webster mouse assessed as tail-flick latency time at 40 mg/kg, ip (reference value: 0.84 +/- 3.58 %) by mouse tetrad assay; type: functional
Mus musculus [19] = assay: Neurobehavioral effect on Swiss Webster mouse assessed as hot plate latency time at 40 mg/kg, ip (reference value: 8.32 +/- 2.20 %) by mouse tetrad assay; type: functional
Mus musculus [20] = assay: Neurobehavioral effect on Swiss Webster mouse assessed as decrease in rectal temperature at 40 mg/kg, ip (reference value: 0.58 +/- 0.26 degC) by mouse tetrad assay; type: functional

Sequence of Cannabinoid receptor 2 (P34972 whole entry): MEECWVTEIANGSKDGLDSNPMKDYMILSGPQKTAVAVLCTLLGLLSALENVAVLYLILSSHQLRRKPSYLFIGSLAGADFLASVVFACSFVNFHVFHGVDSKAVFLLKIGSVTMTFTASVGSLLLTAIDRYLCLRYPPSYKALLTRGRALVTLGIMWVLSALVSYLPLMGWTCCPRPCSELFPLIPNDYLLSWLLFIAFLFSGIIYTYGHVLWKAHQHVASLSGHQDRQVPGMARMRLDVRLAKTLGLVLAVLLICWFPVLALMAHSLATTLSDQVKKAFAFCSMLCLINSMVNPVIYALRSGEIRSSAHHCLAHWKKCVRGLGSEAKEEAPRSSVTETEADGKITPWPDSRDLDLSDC
Sequence of Cannabinoid receptor 1 (P21554 whole entry): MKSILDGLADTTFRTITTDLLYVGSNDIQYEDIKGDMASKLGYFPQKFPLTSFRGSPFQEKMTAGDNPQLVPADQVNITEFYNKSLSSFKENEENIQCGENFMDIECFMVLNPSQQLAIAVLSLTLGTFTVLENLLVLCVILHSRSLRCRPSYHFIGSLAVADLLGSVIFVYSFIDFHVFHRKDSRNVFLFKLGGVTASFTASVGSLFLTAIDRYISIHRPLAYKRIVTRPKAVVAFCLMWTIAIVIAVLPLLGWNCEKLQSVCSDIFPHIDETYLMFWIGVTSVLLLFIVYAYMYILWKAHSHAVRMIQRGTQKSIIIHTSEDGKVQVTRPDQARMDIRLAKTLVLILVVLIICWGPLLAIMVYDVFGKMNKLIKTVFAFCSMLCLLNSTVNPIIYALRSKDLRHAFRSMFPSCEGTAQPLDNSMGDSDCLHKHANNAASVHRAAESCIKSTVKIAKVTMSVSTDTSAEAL

Row | SMILES | Activity (Mus musculus [1]) | Activity (Mus musculus [2]) | Time (Mus musculus [3]) [s] | Time (Mus musculus [4]) [s] | MPE (Mus musculus [5]) [%] | MPE (Mus musculus [6]) [%] | MPE (Mus musculus [7]) [%] | MPE (Mus musculus [8]) [%] | T (Mus musculus [9]) [°C] | T (Mus musculus [10]) [°C] | pKi (Cannabinoid receptor 1) | pKi (Cannabinoid receptor 2) | Activity (Mus musculus [11]) | Time (Mus musculus [12]) [s] | MPE (Mus musculus [13]) [%] | MPE (Mus musculus [14]) [%] | T (Mus musculus [15]) [°C] | Activity (Mus musculus [16]) | Time (Mus musculus [17]) [s] | MPE (Mus musculus [18]) [%] | further results
1 | CCCCCc1cc(O)c2c(c1)OC(C)(C)[C@@H]1CC=C(C)C[C@@H]21 [DELTA-8-TETRAHYDROCANNABINOL] | 1480 | 377.4 | 1.6 | 5.3 | 8.01 | 5.97 | 12.82 | 16.98 | 0.12 | 1.96 |  |  |  |  |  |  |  |  |  |  | 
2 | CCCCCc1cc(O)c2c(c1)OC(C)(C)[C@@H]1CC[C@@]3(C)O[C@H]3[C@@H]21 | 213.4 | 380.3 | 23.8 | 27.5 | 16.25 | 50.37 | 36.98 | 49.39 | 3.75 | 4.58 | 6.65 | 6.47 | 291.2 | 8.8 | 82.71 | 35.89 | 3.11 |  |  |  | 
3 | CCCCCc1cc(O)c2c(c1)OC(C)(C)[C@@H]1CCC(C)=C[C@@H]21 [DRONABINOL] |  | 276.2 |  | 47.9 |  | 42.21 |  | 46.85 |  | 4.25 |  |  | 190.9 | 14.4 | 6.52 | 29.04 | 2.05 | 194 | 37.7 | 51.96 | MPE (Mus musculus [19]): 38.18%; T (Mus musculus [20]): 4.8 °C
4 | CCCCCc1cc(O)c2c(c1)OC(C)(C)[C@@H]1CC=C(C)[C@H](O)[C@@H]21 | 318.1 | 301.9 | 22 | 51.1 | 37.4 | 90.16 | 21.04 | 47.63 | 2.46 | 5.38 | 7.51 | 7.52 | 288.3 | 23.9 | 31.46 | 56.33 | 3.21 |  |  |  | 
5 | CCCCCc1cc(O)c2c(c1)OC(C)(C)[C@@H]1C[C@@H](O)C(C)=C[C@@H]21 |  | 1148 |  | 1.43 |  | 1.62 |  | 2.04 |  | 0.5 | 7.19 | 7.06 | 1617 | 1.143 | 0.13 | 11.83 | 0.49 | 777.4 | 11.43 | 12.69 | MPE (Mus musculus [19]): 11.79%; T (Mus musculus [20]): 0.91 °C
6 | CCCCCc1cc2c(c(O)c1C(=O)O)[C@@H]1C=C(COC(C)=O)CC[C@H]1C(C)(C)O2 |  |  |  |  |  |  |  |  |  |  | 7.33 | 6.04 |  |  |  |  |  |  |  |  | 
7 | CCCCCc1cc(O)c2c(c1)OC(C)(C)[C@@H]1CC=C(C)[C@@H](O)[C@@H]21 |  |  |  |  |  |  |  |  |  |  | 6.08 | 5.48 | 3045 | 1.4 | 2.2 | 6.819 | 0.47 | 2537 | 13.7 | 69.95 | MPE (Mus musculus [19]): 55.65%; T (Mus musculus [20]): 5.32 °C
8 | C=C1CC[C@@H]2[C@H](c3c(O)cc(CCCCC)cc3OC2(C)C)[C@H]1O |  |  |  |  |  |  |  |  |  |  | 6.93 | 6.89 |  |  |  |  |  |  |  |  | 
9 | CCCCCc1cc(O)c2c(c1)OC(C)(C)[C@@H]1C[C@H](O)C(C)=C[C@@H]21 |  | 908.9 |  | 1.5 |  | 5.01 |  | 4.95 |  | 0.58 | 5.72 | 5.49 |  |  |  |  |  |  |  |  | 
10 | CCCCCc1cc(O)c2c(c1)OC(C)(C)[C@@H]1CC[C@](C)(O)[C@@H](O)[C@@H]21 |  | 1892 |  | 2.25 |  | 2.98 |  | 2.4 |  | 0.45 | 5.25 | 5.67 |  |  |  |  |  |  |  |  | 
